The source of these data is publication PMC13607727 (International Journal of Molecular Sciences, 2026).

Common to all, as to type: cell-based, SARS-CoV-2; human
Test [1] concerns the target 2019-nCoV S-RBD/hACE2 (Severe acute respiratory syndrome coronavirus 2, UniProt P0DTC2).
For test [2], the target named is Delta (B.1.617.2) S-RBD/hACE2 (Severe acute respiratory syndrome coronavirus 2, UniProt P0DTC2, L452R/T478K).
The target of test [3] is Omicron (BA.5) S-RBD/hACE2 (Severe acute respiratory syndrome coronavirus 2, UniProt P0DTC2, D405N/E484A/F486V/G339D/K417N/L452R/N440K/N501Y/Q498R/R408S/S371F/S373P/S375F/S477N/T376A/T478K/Y505H).

Counter-ions that a name gives are not always drawn.

With `CCCCCCCCC=CCCCCCCCC(=O)OCC(C[N+](C)(C)C)OC(=O)CCCCCCCC=CCCCCCCCC` (stereo not drawn) [DOTAP, DOTAP chloride], the “Effect on S-RBD/hACE2 colocalisation” value in test [1], in test [2] and in test [3] was “reduced colocalisation to all three S-RBD variants in a concentration-dependent manner” in each case.
As to `CC(OC(=O)OC1CCCCC1)OC(=O)C1=C(CSc2nnnn2CC[NH+](C)C)CSC2C(NC(=O)Cc3csc(N)n3)C(=O)N12` (stereo not drawn) [CTM-HCl, cefotiam hexetil hydrochloride], the “Effect on S-RBD/hACE2 colocalisation” value in test [1], in test [2] and in test [3] was “showed similar effects against all tested strains” throughout.
